Measured values from PubChem BioAssay (NCI).
Several values for one entry are separate records, joined by “and”; a condition that tells them apart may be missing. Equal entries are not always repeated.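 Each compound was tested at five concentrations against cells in 96-well plates for 48 hours. GI50 = concentration required for 50% inhibition of growth. At the TGI there is no net growth.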 *1 amine or outer side, *2 acyl side, *3 side chain or, on linkers, in order; H or OH if unused. Where a SMILES comes first, the peptide text is derived from it. Bridges are numbered along the chain shown (N, C = ends). [ ]: non-standard residue; d: D form. ξ: configuration not given here. X35 = CC[C@H](C)[C@@H](N[*:1])[C@@H](O)CC(=O)O[C@H](C(=O)[C@H](C)C(=O)[*:2])C(C)C; NMeY = CN[C@@H](Cc1ccc(O)cc1)C(=O)O; dNMeL = CN[C@H](CC(C)C)C(=O)O; ξΔPro = O=C(O)C1C=CCN1

How the values were obtained:
Assay in all cases: NCI anticancer screen, dose series, 48 h
NCI-H522 lung = tested on: NCI-H522 lung
SK-OV-3 ovarian = tested on: SK-OV-3 ovarian
HS 578T breast = tested on: HS 578T breast
DU-145 prostate = tested on: DU-145 prostate
OVCAR-5 ovarian = tested on: OVCAR-5 ovarian
CCRF-CEM leukemia = tested on: CCRF-CEM leukemia
LOX IMVI melanoma = tested on: LOX IMVI melanoma
T-47D breast = tested on: T-47D breast
SR leukemia = tested on: SR leukemia
SNB-19 CNS = tested on: SNB-19 CNS

SMILES: CCN(CC)C1Oc2cc3c(cc2C(c2cc(OC)c(OC)c(OC)c2)C1C)OCO3 (stereo not given)
- TGI (NCI-H522 lung): 6.01 µM
- TGI (SK-OV-3 ovarian): > 61.7 µM
- TGI (HS 578T breast): > 100 µM
- TGI (DU-145 prostate): > 91.4 µM
- TGI (OVCAR-5 ovarian): > 47.8 µM
- TGI (CCRF-CEM leukemia): > 22.9 µM
- TGI (LOX IMVI melanoma): > 48.8 µM
- TGI (T-47D breast): > 88.7 µM
- TGI (SR leukemia): 5.01 µM
- TGI (SNB-19 CNS): > 53 µM

SMILES: COC1(OC)C=CC(=O)C=C1
- TGI (NCI-H522 lung): 0.885 µM
- TGI (SK-OV-3 ovarian): 26.3 µM
- TGI (HS 578T breast): > 40.5 µM
- TGI (DU-145 prostate): 12.6 µM
- TGI (OVCAR-5 ovarian): > 41.6 µM
- TGI (CCRF-CEM leukemia): 22.4 µM
- TGI (LOX IMVI melanoma): 2.91 µM
- TGI (T-47D breast): 10.7 µM
- TGI (SR leukemia): > 100 µM
- TGI (SNB-19 CNS): 30.2 µM

SMILES: COC(=O)/C=C1\C(=O)C=C2[C@@H]3C[C@H]4C[C@H](CC[C@@]4(C)N21)C3(C)NC(C)=O (stereo not given in full)
- TGI (NCI-H522 lung): 3.6 µM
- TGI (SK-OV-3 ovarian): 55.7 µM
- TGI (HS 578T breast): 39 µM
- TGI (DU-145 prostate): 32.8 µM
- TGI (OVCAR-5 ovarian): 35.7 µM
- TGI (CCRF-CEM leukemia): 34.7 µM
- TGI (LOX IMVI melanoma): > 100 µM
- TGI (T-47D breast): > 27.8 µM
- TGI (SR leukemia): 99.7 µM
- TGI (SNB-19 CNS): > 56.7 µM

SMILES: NC(=S)N/N=C1\CCCC1C(O)(C(F)(F)Cl)C(F)(F)Cl (stereo not given)
- TGI (NCI-H522 lung): > 10 µM
- TGI (SK-OV-3 ovarian): > 10 µM
- TGI (HS 578T breast): > 10 µM
- TGI (DU-145 prostate): > 10 µM
- TGI (OVCAR-5 ovarian): > 10 µM
- TGI (CCRF-CEM leukemia): > 10 µM
- TGI (LOX IMVI melanoma): > 10 µM
- TGI (T-47D breast): > 10 µM
- TGI (SR leukemia): > 10 µM
- TGI (SNB-19 CNS): > 10 µM

SMILES: CC1(C)[C@@H](OC(N)=O)C=C[C@]2(CO)[C@H]3CC[C@]4(C)[C@@H](c5ccc(=O)oc5)[C@@H](Cl)C[C@]4(O)C3=CC[C@@H]12
- GI50 (NCI-H522 lung): < 0.0001 µM
- TGI (NCI-H522 lung): 0.00305 µM
- GI50 (SK-OV-3 ovarian): 0.00474 µM
- TGI (SK-OV-3 ovarian): 0.0306 µM
- GI50 (HS 578T breast): < 0.0001 µM
- TGI (HS 578T breast): 0.00837 µM
- GI50 (DU-145 prostate): < 0.0001 µM
- TGI (DU-145 prostate): 0.00117 µM
- GI50 (OVCAR-5 ovarian): 0.00426 µM
- TGI (OVCAR-5 ovarian): 0.0163 µM
- GI50 (CCRF-CEM leukemia): < 0.0001 µM
- TGI (CCRF-CEM leukemia): 0.0131 µM
- GI50 (LOX IMVI melanoma): 0.00209 µM
- TGI (LOX IMVI melanoma): 0.0106 µM
- GI50 (T-47D breast): 0.00359 µM
- TGI (T-47D breast): 0.0326 µM
- GI50 (SR leukemia): 0.00232 µM
- TGI (SR leukemia): 0.0146 µM
- GI50 (SNB-19 CNS): 0.00887 µM and 0.0025 µM
- TGI (SNB-19 CNS): 0.0228 µM and 0.0461 µM

SMILES: CNC(=O)N(CCC#N)CCCN(C(=O)N(C)C)c1ccccc1
- TGI (NCI-H522 lung): > 100 µM
- TGI (SK-OV-3 ovarian): > 100 µM
- TGI (HS 578T breast): > 100 µM
- TGI (DU-145 prostate): > 100 µM
- TGI (OVCAR-5 ovarian): > 100 µM
- TGI (CCRF-CEM leukemia): > 100 µM
- TGI (LOX IMVI melanoma): > 100 µM
- TGI (T-47D breast): > 100 µM
- TGI (SR leukemia): > 100 µM
- TGI (SNB-19 CNS): > 100 µM

SMILES: COc1ccc2c(c1)C(=O)C1CCC(=O)N1C2c1ccc2c(c1)OCO2 (stereo not given)
- TGI (NCI-H522 lung): 21.6 µM
- TGI (SK-OV-3 ovarian): 63.1 µM
- TGI (HS 578T breast): 88.1 µM
- TGI (DU-145 prostate): 33.4 µM
- TGI (OVCAR-5 ovarian): 28.1 µM
- TGI (CCRF-CEM leukemia): 13.3 µM
- TGI (LOX IMVI melanoma): 35.1 µM
- TGI (T-47D breast): 48.5 µM
- TGI (SR leukemia): > 100 µM
- TGI (SNB-19 CNS): 26.7 µM

SMILES: CC(C#N)N(CCc1ccccc1)C(=O)c1ccccc1 (stereo not given)
- TGI (NCI-H522 lung): > 100 µM
- TGI (SK-OV-3 ovarian): > 100 µM
- TGI (HS 578T breast): > 100 µM
- TGI (DU-145 prostate): > 100 µM
- TGI (OVCAR-5 ovarian): > 100 µM
- TGI (CCRF-CEM leukemia): > 100 µM
- TGI (LOX IMVI melanoma): > 100 µM
- TGI (T-47D breast): > 100 µM
- TGI (SR leukemia): > 100 µM
- TGI (SNB-19 CNS): > 100 µM

SMILES: O=C(O)COc1cc(-c2ccccc2)nc2ccccc12
- TGI (NCI-H522 lung): > 100 µM
- TGI (SK-OV-3 ovarian): > 100 µM
- TGI (HS 578T breast): > 100 µM
- TGI (DU-145 prostate): > 100 µM
- TGI (OVCAR-5 ovarian): > 100 µM
- TGI (CCRF-CEM leukemia): > 100 µM
- TGI (LOX IMVI melanoma): > 100 µM
- TGI (T-47D breast): > 100 µM
- TGI (SR leukemia): > 100 µM
- TGI (SNB-19 CNS): > 100 µM

SMILES: CC1CN=C(c2ccc(-c3nc(-c4ccc(C5=NCC(C)N5)cc4)nc(N(C)C)n3)cc2)N1 (stereo not given)
- TGI (NCI-H522 lung): 3.2 µM
- TGI (SK-OV-3 ovarian): 5.54 µM
- TGI (HS 578T breast): 17.6 µM
- TGI (DU-145 prostate): 5.59 µM
- TGI (OVCAR-5 ovarian): 10.8 µM
- TGI (CCRF-CEM leukemia): 3.59 µM
- TGI (LOX IMVI melanoma): 2.93 µM
- TGI (T-47D breast): 12.9 µM
- TGI (SR leukemia): 2.49 µM
- TGI (SNB-19 CNS): 6.73 µM

SMILES: CC[C@H](C)[C@H]1NC(=O)[C@@H](NC(=O)[C@@H](CC(C)C)N(C)C(=O)C2C=CCN2)[C@@H](C)OC(=O)[C@H](Cc2ccc(OC)cc2)N(C)C(=O)[C@@H]2CCCN2C(=O)[C@H](CC(C)C)NC(=O)[C@@H](C)C(=O)[C@H](C(C)C)OC(=O)C[C@@H]1O (stereo not given in full) (H-[ξΔPro][dNMeL]T[X35]LP[NMeY](Me); ester 3-C)
- TGI (NCI-H522 lung): < 0.005 µM
- TGI (SK-OV-3 ovarian): 0.183 µM
- TGI (HS 578T breast): < 0.005 µM
- TGI (DU-145 prostate): 0.251 µM
- TGI (OVCAR-5 ovarian): > 50 µM
- TGI (CCRF-CEM leukemia): > 50 µM
- TGI (LOX IMVI melanoma): 0.0161 µM
- TGI (T-47D breast): 0.136 µM
- TGI (SR leukemia): 2.54 µM
- TGI (SNB-19 CNS): 0.00706 µM

SMILES: Clc1nc2c(C#Cc3ccccc3)ncnc2n1C1CCCCO1 (stereo not given)
- TGI (NCI-H522 lung): 25.1 µM
- TGI (SK-OV-3 ovarian): > 100 µM
- TGI (HS 578T breast): 99.5 µM
- TGI (DU-145 prostate): 63.2 µM
- TGI (OVCAR-5 ovarian): 25.9 µM
- TGI (CCRF-CEM leukemia): > 100 µM
- TGI (LOX IMVI melanoma): 30.7 µM
- TGI (T-47D breast): > 100 µM
- TGI (SR leukemia): 24.1 µM
- TGI (SNB-19 CNS): 37.3 µM

SMILES: Cc1cc2nc(-c3c(N)ncc(C#N)c3-c3ccc(Cl)cc3)[nH]c2cc1C
- GI50 (NCI-H522 lung): 4.07 µM
- TGI (NCI-H522 lung): 27.9 µM
- GI50 (SK-OV-3 ovarian): 11.9 µM
- TGI (SK-OV-3 ovarian): 27.9 µM
- GI50 (HS 578T breast): 12 µM
- TGI (HS 578T breast): > 100 µM
- GI50 (DU-145 prostate): 5.68 µM
- TGI (DU-145 prostate): 27.1 µM
- GI50 (OVCAR-5 ovarian): 14.7 µM
- TGI (OVCAR-5 ovarian): > 100 µM
- GI50 (CCRF-CEM leukemia): 24.6 µM
- TGI (CCRF-CEM leukemia): > 100 µM
- GI50 (LOX IMVI melanoma): 5.83 µM
- TGI (LOX IMVI melanoma): 26 µM
- GI50 (T-47D breast): 4.63 µM
- TGI (T-47D breast): > 100 µM
- GI50 (SR leukemia): 28.7 µM
- TGI (SR leukemia): > 100 µM
- GI50 (SNB-19 CNS): 19.5 µM
- TGI (SNB-19 CNS): 75.6 µM
